Experiment [1] relates to E. coli. Put plainly: Gram negative MIC protocol (OD600, LB, 24 h). Particulars: Escherichia coli.
Description: (§1) Overnight bacterial cultures were grown in LB with no added antibiotics at 37° C. with shaking. A 1:1000 dilution of these cultures into LB was exposed to concentration gradients of compounds in 96-well plates (100 μL per well assay volume). Resulting plates were incubated at 37° C. for 24 h without shaking, and OD600 was measured at the end of the incubation. MICs were determined as the lowest concentrations at which OD600 remained at baseline.
The test system of experiment [2] is H37RvMA. Put plainly: Tuberculosis Alamar Blue/Resazurin assay (MIC). In kind it is cell-based. A general note: Alamar Blue is a resazurin reagent that responds to reducing activity.
Experiment [3] concerns E. coli K-12. The experiment in a line: Resistance development on LB-agar plates, combination therapy. Particulars: B1 in combination with anti-LeuS Tavaborole, adjusted for dose equivalence; 10^8 cells plated, 37° C., 24 hours; multiple independent experiments (FIG. 1).
Description: Experimental details: Cultures of E. coli K-12 were started from single colonies on LB-agar plates and were grown in LB for 36 hours with shaking at 37° C. Following that, 10^8 cells were plated on LB-agar plates containing B1 or Tavaborole alone or in combination adjusted for dose equivalence and incubated at 37° C. for 24 hours.
Experiment [4] deals with A. baumannii. Put plainly: Gram negative MIC protocol (OD600, LB, 24 h). Particulars: Acinetobacter baumannii.
Description: as §1
Setting [5] is: read-out: MIC E. coli delta-TolC LB Media, E. coli delta-TolC, LB media, OD600.
Where [6] appears, read: read-out: MIC WT E. coli LB Media, WT E. coli, LB media, OD600.
The mark [7] stands for this setting: Mycobacterium tuberculosis, H37RV, WT H37Rv MTB; read-out: WT H37Rv MTB Activity.
Setting [8] is: read-out: MIC A. baumannii LB Media, A. baumannii, LB media, 24 h, OD600.
[9] abbreviates: read-out: MIC E. coli delta-TolC LB Media, E. coli delta-TolC strain, LB media, 24 h, OD600.
Where [10] appears, read: read-out: MIC WT E. coli LB Media, wild-type E. coli, LB media, 24 h, OD600.
[11] abbreviates: Mycobacterium tuberculosis, H37RV; read-out: WT H37Rv MTB Activity.

In patent US11261201B2 (priority 2018, dated 2022) one finds MIC and development of resistance data, which are given here for 15 compounds.

Converted amounts (≈) assume the structure as drawn. Where two headings read alike, the source gives them in different places.

As to `C1=C(CCNCc2ccccc2)CCCC1` [B1, N-benzyl-2-(cyclohex-1-en-1-yl)ethan-1-amine], the MIC in experiment [1] (setting [5]) is 46 µM (≈ 9.91 µg/mL); in experiment [1] (setting [6]) it was 60 µM (≈ 12.9 µg/mL); in experiment [2] (Mycobacterium tuberculosis, H37RV, read-out: WT H37Rv MTB Activity), above 150 µM; in experiment [4] (read-out: MIC A. baumannii LB Media) it was 150 µM (≈ 32.3 µg/mL). Further, the development of resistance result in experiment [3] is listed as “did not develop resistance”.
Regarding `c1ccc(CNCC2CC3CCC2CC3)cc1` (stereo not shown) [B123], the MIC was above 150 µM in experiment [1] (setting [5]), above 150 µM in experiment [1] (setting [6]), 150 µM (≈ 34.4 µg/mL) in experiment [2] (setting [7]) and above 150 µM in experiment [4] (setting [8]).
In the case of `c1ccc(CNCCN2CCCC3CCCC32)cc1` (stereo not shown) [B126], the MIC in experiment [1] (setting [5]), in experiment [1] (setting [6]), in experiment [2] (setting [7]) and in experiment [4] (setting [8]) was above 150 µM throughout.
As to `CC(CC1CCCCC1)NCc1ccccc1OC1CCCCC1C` (stereo not shown) [B389, 1-cyclohexyl-N-(2-((2-methylcyclohexyl)oxy)benzyl)propan-2-amine], the MIC is 3 µM (≈ 1.03 µg/mL) in experiment [1] (setting [9]), above 150 µM in experiment [1] (setting [10]), 33.4 µM (≈ 11.5 µg/mL) in experiment [2] (setting [7]) and 91 µM (≈ 31.3 µg/mL) in experiment [4] (setting [8]).
As to `O=C1Cc2ccccc2CN1CCc1ccccc1` [B421, 2-phenethyl-1,4-dihydroisoquinolin-3(2H)-one], the MIC in experiment [1] (setting [5]) is above 150 µM; in experiment [1] (setting [6]) it was above 150 µM; in experiment [2] (setting [7]), 55.1 µM (≈ 13.8 µg/mL); in experiment [4] (setting [8]), above 150 µM.
On to `CC(CC1CCCCC1)NCc1ccccc1CS(=O)(=O)NCC(=O)NCC(=O)O` (stereo not shown) [B452, ((2-(((1-cyclohexylpropan-2-yl)amino)methyl)benzyl)sulfonyl)glycylglycine], for which the MIC in experiment [1] (setting [5]), in experiment [1] (setting [6]), in experiment [2] (setting [7]) and in experiment [4] (setting [8]) was above 150 µM each time.
In the case of `CC(CC1CCCCC1)NCc1ccccc1OCC1CN(C)C(=O)O1` (stereo not shown) [B372], the MIC in experiment [1] (setting [9]) is 5 µM (≈ 1.8 µg/mL); in experiment [1] (setting [10]) it was 150 µM (≈ 54.1 µg/mL); in experiment [2] (setting [7]), above 150 µM; in experiment [4] (setting [8]) it was above 150 µM.
As for `COc1ccc(CC(C)NCc2ccccc2)c2ccccc12` (stereo not shown) [B201], the MIC in experiment [1] (setting [9]) was 96 µM (≈ 29.3 µg/mL); in experiment [1] (setting [10]) it was above 300 µM; in experiment [2] (setting [11]), 91 µM (≈ 27.8 µg/mL); in experiment [4] (setting [8]), 170 µM (≈ 51.9 µg/mL).
In the case of `CC(CC1CCCCC1)NCc1ccccc1OCC(C)(C)O` (stereo not shown) [B343], the MIC is 4 µM (≈ 1.28 µg/mL) in experiment [1] (setting [9]), 150 µM (≈ 47.9 µg/mL) in experiment [1] (setting [10]), above 150 µM in experiment [2] (setting [7]) and 150 µM (≈ 47.9 µg/mL) in experiment [4] (setting [8]).
As to `NC(=O)Nc1ccccc1CNCCC1CCCCC1` [B373], the MIC in experiment [1] (setting [9]) is 150 µM (≈ 41.3 µg/mL); in experiment [1] (setting [10]) it was above 150 µM; in experiment [2] (setting [7]), above 150 µM; in experiment [4] (setting [8]), above 150 µM.
`CC(Cc1cnn(C)c1)NCc1ccccc1` (stereo not shown) [B41]: the MIC in experiment [1] (setting [5]), in experiment [1] (setting [6]), in experiment [2] (setting [11]) and in experiment [4] (setting [8]) was above 150 µM each time.
Consider `CSCCCOc1ccccc1CNC(C)CC1CCCCC1` (stereo not shown) [B364], for which the MIC in experiment [1] (setting [9]) was found to be 3 µM (≈ 1.01 µg/mL); in experiment [1] (setting [10]) it was 150 µM (≈ 50.3 µg/mL); in experiment [2] (setting [7]), 91 µM (≈ 30.5 µg/mL); in experiment [4] (setting [8]), 150 µM (≈ 50.3 µg/mL).
As to `CC(CC1CCCCC1)NCc1ccccc1CS(=O)(=O)NC(=O)NC1CCCCC1` (stereo not shown) [B449, N-(cyclohexylcarbamoyl)-1-(2-(((1-cyclohexylpropan-2-yl)amino)methyl)phenyl) methanesulfonamide], the MIC in experiment [1] (setting [5]) is 12 µM (≈ 5.4 µg/mL); in experiment [1] (setting [6]) it was above 150 µM; in experiment [2] (setting [7]) it was above 150 µM; in experiment [4] (setting [8]), above 150 µM.
As for `CC(CC1CCCCC1)NCc1ccccc1OCC(=O)NC(C)C(=O)N(C)C` (stereo not shown) [B270], the MIC was 20 µM (≈ 8.07 µg/mL) in experiment [1] (setting [9]), above 150 µM in experiment [1] (setting [10]), above 150 µM in experiment [2] (setting [7]) and above 150 µM in experiment [4] (setting [8]).
As to `COC(=O)Cc1cccc(CNCCC2CCCCC2)c1` [B440, methyl 2-(3-(((2-cyclohexylethyl)amino)methyl)phenyl)acetate], the MIC was above 150 µM in experiment [1] (setting [5]), above 150 µM in experiment [1] (setting [6]), 150 µM (≈ 43.4 µg/mL) in experiment [2] (setting [7]) and above 150 µM in experiment [4] (setting [8]).
